Results published in patent publication US20010056085A1, “Methods of using vesicant drug formulations” (priority 1996, published 2001).
Where “and” joins values, the source holds several entries; their conditions need not be identical. Identical values can stand only once. Like-named read-outs stand apart in the source and are kept apart here.

Experiment: Half-life of ADR destruction by UVA light in the presence of test compounds (decrease in absorbance at 480 nm)
Type: physicochemical
[1] = UVA light, 100 μM test compound alone
[2] = UVA light, 100 μM test compound with 0.5 μM riboflavin

Row | SMILES | Half-Life of ADR Destruction, 100 μM Test Compound [1] [min] | Half-Life of ADR Destruction, 100 μM Test Compound and 0.5 μM Riboflavin [2] | Half-Life of ADR Destruction, 100 μM Test Compound [min] | Half-Life of ADR Destruction, 100 μM Test Compound and 0.5 μM Riboflavin [min]
1 | O=S(=O)(c1ccc(O)cc1)c1ccc(O)cc1 [4,4-Dihydroxy Phenylsulfone] | 43.0 | 43.0 min |  | 
2 | CC(=O)c1c[nH]c2ccccc12 [3-Acetylindole] |  | 33.5 min |  | 
3 | O=C(c1ccccc1)c1ccc2n1CCC2C(=O)O (stereo not shown) [Ketorlac, reference compound] |  |  | 4.07 | 3.81
4 | Cc1ccc(C)[nH]1 [2,5-Dimethyl Pyrrole] |  | 9.12 min |  | 
5 | O=C(O)c1cccc2c1-c1ccccc1C2 [4-Fluorene Carboxylic acid] | 30.1 | 18.8 min |  | 
6 | O=C(O)CCOc1ccc(-c2ccccc2)cc1 [3-(4-Biphenylyloxy) Propionic Acid] | 43.0 | 43.0 min |  | 
7 | O=C(O)c1ccc([N+](=O)[O-])cc1 [4-Nitro Benzoic Acid] |  | 50.2 min |  | 
8 | O=C(O)c1cccc(O)c1 [3-Hydroxy Benzoic Acid] |  | 23.2 min |  | 
9 | CCc1cccc(N)c1 [3-Ethyl Aniline] |  | 20.1 min |  | 
10 | NCc1ccc(CN)cc1 [4-Aminomethyl Benzylamine] |  | 50.2 min and 33.5 min |  | 
11 | O=c1[nH]c(=O)c2[nH]c(=O)[nH]c2[nH]1 [Uric acid] |  | 21.5 min |  | 
12 | COc1ccc(CCO)cc1 [4-Methoxy Phenylethyl Alcohol] | 43.0 | 5.47 min |  | 
13 | CC(=O)c1ccc[nH]1 [2-Acetyl Pyrrole] | 50.2 | 30.1 min |  | 
14 | O=C1CCc2ccccc2N1 [3,4-Dihydro-2(1H)-quinolinone] |  |  |  | 20.1
15 | Nc1ccc2c(O)cc(S(=O)(=O)O)cc2c1 [7-Amino-4-hydroxy-2-naphthalenesulfonic acid] |  | 30.1 min |  | 
16 | O=C(O)c1cc2ccccc2[nH]1 [Indole-2-carboxylic acid] |  | 9.12 min |  | 
17 | O=C(O)c1ccc(-c2ccccc2)cc1 [4-Phenyl Benzoic Acid] | 43.0 |  |  | 
18 | Cc1[nH]c2ccccc2c1C [2,3-Dimethyl Indole] |  | 20.1 min |  | 
19 | Nc1ncnc2nc[nH]c12 [Adenine] | 50.2 | 27.4 min |  | 
20 | CC(=O)c1cccc2ccccc12 [1-Acetonaphthone] | 6.69 | 6.54 min |  | 
21 | COc1ccc2c(C(=O)O)cccc2c1 [6-Methoxynaphthalene-1-carboyxlic acid] | 18.8 | 4.49 min |  | 
22 | O=C(O)CCC(=O)c1ccc(-c2ccccc2)cc1 [Fenbufen, reference compound] | 12.5 | 12.0 min |  | 
23 | COc1ccc(C(=O)O)cc1 [4-Methoxy Benzoic Acid] |  | 33.5 min |  | 
24 | O=C(O)C(O)Cc1c[nH]c2ccccc12 (stereo not shown) [3-Indolelactic acid] |  | 6.40 min |  | 
25 | O=C(O)C=Cc1ccc2ccccc2c1 [3-(2-Naphthyl)acrylic acid] |  | 43.0 min |  | 
26 | O=C(O)c1ccccc1-c1ccccc1 [2-Phenyl Benzoic Acid] | 43.0 | 43.0 min |  | 
